Source: ChEMBL document CHEMBL5724914, “Linking interpersonal differences in gut microbiota composition and drug biotransformation activity” (2024)

Assays:
[1] = human gut metagenome, 24 h, 2 µM
[2] = (§1) The drug is tested on Z-016 corresponding to mouse gut metagenome with ENA study accession number: PRJEB37062 and ENA sample accession number: ERS12561815 for biotransformation under anaerobic condition. The drug concentrations were measured over 9 timepoints collected between 0 and 24 hours of incubation by liquid-chromatography-coupled mass spectrometry (LC–MS); settings: 2 µM
[3] = as §1, with “WLS-098” for “Z-016”, “human” for “mouse”, “ERS12561754” for “ERS12561815”; settings: 2 µM
[4] = as §1, with “WLS-073” for “Z-016”, “human” for “mouse”, “ERS12561749” for “ERS12561815”; settings: 2 µM
[5] = as §1, with “WLS-082” for “Z-016”, “human” for “mouse”, “ERS12561751” for “ERS12561815”; settings: 2 µM
[6] = as §1, with “Z-022” for “Z-016”, “ERS12561821” for “ERS12561815”; settings: 2 µM
[7] = human gut metagenome, 24 h, 2 µM; remark: listed apart in the source
[8] = as §1, with “Z-027” for “Z-016”, “to” for “to mouse gut”, “ERS12561826” for “ERS12561815”; settings: 2 µM
[9] = human gut metagenome, 24 h, 2 µM; remark: listed apart in the source
[10] = human gut metagenome, 24 h, 2 µM; remark: listed apart in the source
[11] = human gut metagenome, 24 h, 2 µM; remark: listed apart in the source
[12] = human gut metagenome, 24 h, 2 µM; remark: listed apart in the source
[13] = as §1, with “Z-024” for “Z-016”, “pig” for “mouse”, “ERS12561823” for “ERS12561815”; settings: 2 µM
[14] = as §1, with “WLS-240” for “Z-016”, “human” for “mouse”, “ERS12561773” for “ERS12561815”; settings: 2 µM
[15] = as §1, with “WLS-027” for “Z-016”, “human” for “mouse”, “ERS12561744” for “ERS12561815”; settings: 2 µM
[16] = as §1, with “WLS-069” for “Z-016”, “human” for “mouse”, “ERS12561748” for “ERS12561815”; settings: 2 µM
[17] = human gut metagenome, 24 h, 2 µM; remark: listed apart in the source
[18] = as §1, with “WLS-052” for “Z-016”, “human” for “mouse”, “ERS12561747” for “ERS12561815”; settings: 2 µM
[19] = human gut metagenome, 24 h, 2 µM; remark: listed apart in the source
[20] = as §1, with “Z-028” for “Z-016”, “ERS12561827” for “ERS12561815”; settings: 2 µM
Further: call rule not given here.

Row | Bacterial Biotransformation [1] | Bacterial Biotransformation [2] | Bacterial Biotransformation [3] | Bacterial Biotransformation [4] | Bacterial Biotransformation [5] | Bacterial Biotransformation [6] | Bacterial Biotransformation [7] | Bacterial Biotransformation [8] | Bacterial Biotransformation [9] | Bacterial Biotransformation [10] | Bacterial Biotransformation [11] | Bacterial Biotransformation [12] | Bacterial Biotransformation [13] | Bacterial Biotransformation [14] | Bacterial Biotransformation [15] | Bacterial Biotransformation [16] | Bacterial Biotransformation [17] | Bacterial Biotransformation [18] | Bacterial Biotransformation [19] | Bacterial Biotransformation [20] | SMILES
1 | Compound NOT metabolized | Compound NOT metabolized | Compound metabolized | Compound metabolized | Compound NOT metabolized | Compound NOT metabolized | Compound metabolized | Compound NOT metabolized | Compound NOT metabolized | Compound NOT metabolized | Compound metabolized | Compound NOT metabolized | Compound NOT metabolized | Compound metabolized | Compound NOT metabolized | Compound NOT metabolized | Compound NOT metabolized | Compound NOT metabolized | Compound NOT metabolized | Compound NOT metabolized | CN1CCC(=C2c3ccccc3CC(=O)c3sccc32)CC1.O=C(O)/C=C/C(=O)O [KETOTIFEN FUMARATE]
2 | Compound NOT metabolized | Compound NOT metabolized | Compound NOT metabolized | Compound NOT metabolized | Compound metabolized | Compound metabolized | Compound metabolized | Compound NOT metabolized | Compound NOT metabolized | Compound NOT metabolized | Compound metabolized | Compound NOT metabolized | Compound NOT metabolized | Compound metabolized | Compound metabolized | Compound metabolized | Compound metabolized | Compound metabolized | Compound NOT metabolized | Compound metabolized | CC[C@H](C)C(=O)O[C@H]1CCC=C2C=C[C@H](C)[C@H](CC[C@@H]3C[C@@H](O)CC(=O)O3)[C@H]21 [MEVASTATIN]
3 | Compound metabolized | Compound NOT metabolized | Compound metabolized | Compound NOT metabolized | Compound metabolized | Compound NOT metabolized | Compound metabolized | Compound NOT metabolized | Compound NOT metabolized | Compound metabolized | Compound metabolized | Compound NOT metabolized | Compound NOT metabolized | Compound metabolized | Compound metabolized | Compound metabolized | Compound NOT metabolized | Compound metabolized | Compound NOT metabolized | Compound NOT metabolized | COc1ccc2cc([C@H](C)C(=O)O)ccc2c1 [NAPROXEN]
4 | Compound metabolized | Compound NOT metabolized | Compound metabolized | Compound NOT metabolized | Compound metabolized | Compound NOT metabolized | Compound metabolized | Compound NOT metabolized | Compound NOT metabolized | Compound metabolized | Compound metabolized | Compound NOT metabolized | Compound NOT metabolized | Compound metabolized | Compound metabolized | Compound metabolized | Compound metabolized | Compound metabolized | Compound metabolized | Compound NOT metabolized | CC(C)c1nc(N(C)S(C)(=O)=O)nc(-c2ccc(F)cc2)c1/C=C/[C@@H](O)C[C@@H](O)CC(=O)[O-].CC(C)c1nc(N(C)S(C)(=O)=O)nc(-c2ccc(F)cc2)c1/C=C/[C@@H](O)C[C@@H](O)CC(=O)[O-].[Ca+2] [ROSUVASTATIN CALCIUM]
5 | Compound metabolized | Compound metabolized | Compound metabolized | Compound metabolized | Compound metabolized | Compound metabolized | Compound metabolized | Compound NOT metabolized | Compound metabolized | Compound metabolized | Compound metabolized | Compound metabolized | Compound metabolized | Compound metabolized | Compound metabolized | Compound metabolized | Compound metabolized | Compound NOT metabolized | Compound metabolized | Compound metabolized | O=C(O)c1cc(/N=N/c2ccc(S(=O)(=O)Nc3ccccn3)cc2)ccc1O [SULFASALAZINE]

The remaining lines, values behind:

Row | SMILES | Bacterial Biotransformation [1] | Bacterial Biotransformation [2] | Bacterial Biotransformation [3] | Bacterial Biotransformation [4] | Bacterial Biotransformation [5] | Bacterial Biotransformation [6] | Bacterial Biotransformation [7] | Bacterial Biotransformation [8] | Bacterial Biotransformation [9] | Bacterial Biotransformation [10] | Bacterial Biotransformation [11] | Bacterial Biotransformation [12] | Bacterial Biotransformation [13] | Bacterial Biotransformation [14] | Bacterial Biotransformation [15] | Bacterial Biotransformation [16] | Bacterial Biotransformation [17] | Bacterial Biotransformation [18] | Bacterial Biotransformation [19] | Bacterial Biotransformation [20]
6 | C#C[C@]1(OC(C)=O)CC[C@H]2[C@@H]3CCC4=C/C(=N/O)CC[C@@H]4[C@H]3CC[C@@]21CC [NORGESTIMATE] | Compound metabolized | Compound NOT metabolized | Compound metabolized | Compound metabolized | Compound metabolized | Compound NOT metabolized | Compound metabolized | Compound NOT metabolized | Compound NOT metabolized | Compound metabolized | Compound metabolized | Compound metabolized | Compound NOT metabolized | Compound metabolized | Compound metabolized | Compound metabolized | Compound metabolized | Compound metabolized | Compound NOT metabolized | Compound NOT metabolized
7 | COc1ccnc(C[S+]([O-])c2nc3ccc(OC(F)F)cc3[nH]2)c1OC (stereo not given) [PANTOPRAZOLE] | Compound NOT metabolized | Compound metabolized | Compound metabolized | Compound metabolized | Compound metabolized | Compound metabolized | Compound metabolized | Compound metabolized | Compound metabolized | Compound metabolized | Compound metabolized | Compound metabolized | Compound metabolized | Compound metabolized | Compound metabolized | Compound metabolized | Compound metabolized | Compound metabolized | Compound metabolized | Compound metabolized
8 | CN(CCOc1ccc(CC2SC(=O)NC2=O)cc1)c1ccccn1.O=C(O)/C=C\C(=O)O (stereo not given) [ROSIGLITAZONE MALEATE] | Compound NOT metabolized | Compound NOT metabolized | Compound metabolized | Compound NOT metabolized | Compound NOT metabolized | Compound NOT metabolized | Compound metabolized | Compound NOT metabolized | Compound NOT metabolized | Compound NOT metabolized | Compound metabolized | Compound metabolized | Compound NOT metabolized | Compound metabolized | Compound metabolized | Compound metabolized | Compound NOT metabolized | Compound NOT metabolized | Compound NOT metabolized | Compound NOT metabolized
